Experimental data: ChEMBL document CHEMBL1136686 (Bioorg Med Chem Lett, 2003)

Target: T1, Progesterone receptor (Homo sapiens, UniProt P06401)
T1 sequence (P06401 whole entry): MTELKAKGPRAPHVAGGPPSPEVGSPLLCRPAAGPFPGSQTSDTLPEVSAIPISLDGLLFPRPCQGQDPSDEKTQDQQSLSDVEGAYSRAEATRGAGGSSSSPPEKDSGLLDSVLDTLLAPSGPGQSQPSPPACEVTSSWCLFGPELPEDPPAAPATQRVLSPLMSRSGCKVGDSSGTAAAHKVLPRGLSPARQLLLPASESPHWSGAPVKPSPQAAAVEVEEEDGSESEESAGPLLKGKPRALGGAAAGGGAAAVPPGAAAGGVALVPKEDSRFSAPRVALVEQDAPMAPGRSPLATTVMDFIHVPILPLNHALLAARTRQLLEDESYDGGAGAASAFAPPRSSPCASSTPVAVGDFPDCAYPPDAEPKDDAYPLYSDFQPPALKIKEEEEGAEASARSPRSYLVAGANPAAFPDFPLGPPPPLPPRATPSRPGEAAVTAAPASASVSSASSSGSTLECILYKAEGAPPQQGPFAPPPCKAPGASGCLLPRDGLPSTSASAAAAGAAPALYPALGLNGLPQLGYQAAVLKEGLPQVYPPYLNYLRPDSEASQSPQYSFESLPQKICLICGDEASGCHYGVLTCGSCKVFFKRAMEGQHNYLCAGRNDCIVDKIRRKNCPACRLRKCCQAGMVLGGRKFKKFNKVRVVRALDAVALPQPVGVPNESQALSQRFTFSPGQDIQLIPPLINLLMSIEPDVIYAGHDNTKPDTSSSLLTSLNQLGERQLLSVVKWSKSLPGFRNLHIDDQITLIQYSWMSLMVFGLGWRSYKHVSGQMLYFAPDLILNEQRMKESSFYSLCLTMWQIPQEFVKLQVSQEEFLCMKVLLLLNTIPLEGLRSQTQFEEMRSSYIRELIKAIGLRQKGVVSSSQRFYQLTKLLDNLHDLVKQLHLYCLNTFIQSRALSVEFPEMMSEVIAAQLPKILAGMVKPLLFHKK
Experiment: Inhibition of [3H]P4 binding at progesterone receptor of human T47D breast carcinoma cells
Assay type: cell-based

Row | IC50 [µM] | Structure (SMILES)
1 | 0.1 | CC1(C)OC(S)=Nc2ccc(-c3cc(Br)cc(C#N)c3)cc21
2 | 0.1 | Cc1cc(Br)cc(-c2ccc3c(c2)C(C)(C)OC(=S)N3)c1
3 | 0.1 | CC1(C)OC(=S)Nc2ccc(-c3cc(Br)cc(OC(F)(F)F)c3)cc21
4 | 0.1 | COc1cc(C#N)cc(-c2ccc3c(c2)C(C)(C)OC(=S)N3)c1
5 | 0.1 | CC1(C)OC(S)=Nc2ccc(-c3cc(C#N)cc(OC(F)(F)F)c3)cc21

Target: T1, Progesterone receptor
Experiment: Inhibition of [3H]P4 to progesterone receptor (PR) of human T47D breast carcinoma cells
Assay type: cell-based

Row | IC50 [µM] | Structure (SMILES)
6 | 0.1 | CN1C(=S)OC(C)(C)c2cc(-c3cc(F)cc(Br)c3)ccc21
7 | 0.114 | CN1C(=S)OC(C)(C)c2cc(-c3cccc(Br)c3)ccc21
8 | 0.1 | CCN1C(=S)OC(C)(C)c2cc(-c3cc(F)cc(C#N)c3)ccc21

Target: T1, Progesterone receptor
Experiment: Effective concentration on alkaline phosphatase activity in human T47D breast carcinoma cell line.
Assay type: functional, cell-based

Row | Structure (SMILES) | EC50 [µM]
9 | CCC1(CC)OC(=S)Nc2ccc(-c3cccc(Cl)c3)cc21 | 0.0072
10 | CN1C(=S)OC(C)(C)c2cc(-c3cc(F)cc(Br)c3)ccc21 | > 10
11 | CC1(C)OC(=S)Nc2ccc(-c3ccc(F)c(F)c3)cc21 | 0.0114
12 | CC1(C)OC(=S)Nc2ccc(-c3ccccc3Cl)cc21 | 0.0498
13 | CN1C(=S)OC(C)(C)c2cc(-c3cccc(Br)c3)ccc21 | > 10
14 | CC1(C)OC(S)=Nc2ccc(-c3cc(C#N)cc(C#N)c3)cc21 | 0.042
15 | CCN1C(=S)OC(C)(C)c2cc(-c3cc(F)cc(C#N)c3)ccc21 | > 10
16 | CC1(C)OC(S)=Nc2ccc(-c3cc(Br)cc(C#N)c3)cc21 | > 10
17 | CC1(C)OC(=S)Nc2c(F)cc(-c3cc(F)cc(C#N)c3)cc21 | 1
18 | Cc1cc(Br)cc(-c2ccc3c(c2)C(C)(C)OC(=S)N3)c1 | > 10
19 | CC1(C)OC(=S)Nc2ccc(-c3cc(Br)cc(OC(F)(F)F)c3)cc21 | > 10
20 | Cc1cc(C#N)cc(-c2ccc3c(c2)C(C)(C)OC(=S)N3)c1 | 0.2
21 | COc1cccc(-c2ccc3c(c2)C(C)(C)OC(=S)N3)c1 | 0.0072
22 | SC1=Nc2ccc(-c3cccc(Cl)c3)cc2C(Cc2ccccc2)(Cc2ccccc2)O1 | 1
23 | CC1(C)OC(S)=Nc2c(Br)cc(-c3ccc(Cl)c(F)c3)cc21 | 1
24 | CC1(Cc2ccccc2)OC(=S)Nc2ccc(-c3cccc(Cl)c3)cc21 (configuration not stated) | 0.0885
25 | CC1(C)OC(S)=Nc2c(Br)cc(-c3ccc(C#N)c(F)c3)cc21 | > 10
26 | CC1OC(=S)Nc2ccc(-c3cccc(F)c3)cc21 (configuration not stated) | 0.3
27 | COc1cc(C#N)cc(-c2ccc3c(c2)C(C)(C)OC(=S)N3)c1 | > 10
28 | CC1(C)OC(=S)Nc2ccc(-c3ccccc3F)cc21 | 0.0116
29 | CC1(C)OC(=S)Nc2ccc(-c3ccc(F)c(Cl)c3)cc21 | 0.0795
30 | CC1(C)OC(=S)Nc2ccc(-c3cc(Cl)cc(C#N)c3)cc21 | 0.0449
31 | CC1(C)OC(S)=Nc2ccc(-c3cc(C#N)cc(OC(F)(F)F)c3)cc21 | > 10
32 | CC1(C)OC(=S)Nc2ccc(-c3cc(Cl)cc(Cl)c3)cc21 | 0.0265
33 | CC1(C)OC(=S)Nc2c(Br)cc(-c3cc(F)cc(C#N)c3)cc21 | 0.0801

Results, then the compound that gave them:

Row | EC50 [µM] | Structure (SMILES)
34 | 0.0006 | CC1(C)OC(=S)Nc2ccc(-c3cc(F)cc(C#N)c3)cc21
35 | 0.0017 | CC1(C)OC(=S)Nc2ccc(-c3cc(F)cc(Br)c3)cc21
36 | 0.0057 | CC1(c2ccccc2)OC(=S)Nc2ccc(-c3cccc(Cl)c3)cc21 (configuration not stated)
37 | 0.0017 | CC1(C)OC(=S)Nc2ccc(-c3cccc(Cl)c3)cc21
38 | 0.0003 | C=CCC1(C)OC(=S)Nc2ccc(-c3cccc(Cl)c3)cc21 (configuration not stated)
39 | 0.0025 | N#Cc1cccc(-c2ccc3c(c2)C2(CCCCC2)OC(=S)N3)c1
40 | 0.0004 | CC1(C)OC(=S)Nc2ccc(-c3cccc(C#N)c3)cc21
41 | 0.0025 | CC1(C)OC(=S)Nc2ccc(-c3cc(F)cc(C(F)(F)F)c3)cc21
42 | 0.0011 | CC1(C)OC(=S)Nc2ccc(-c3cccc([N+](=O)[O-])c3)cc21
43 | 0.0015 | CC1(C)OC(=S)Nc2ccc(-c3cc(F)cc(F)c3)cc21
44 | 0.0007 | CC1(C)OC(=S)Nc2ccc(-c3ccc(C#N)s3)cc21
45 | 0.001 | CC1(C)OC(=S)Nc2ccc(-c3cccc(F)c3)cc21
46 | 0.0025 | CC1(C)OC(=S)Nc2ccc(-c3cccc(Br)c3)cc21
47 | 0.0047 | CCC1(CC)OC(=S)Nc2ccc(-c3cccc([N+](=O)[O-])c3)cc21
48 | 0.00125 | CC1(C)OC(=S)Nc2ccc(-c3ccc(C#N)o3)cc21
49 | 0.0015 | CC1(C)OC(=S)Nc2ccc(-c3cccc(F)c3F)cc21
50 | 0.0012 | CC1(C)OC(=S)Nc2ccc(-c3coc(C#N)c3)cc21
51 | 0.0009 | CC1(C)OC(S)=Nc2ccc(-c3cc(F)cc(Cl)c3)cc21
52 | 0.0026 | COc1cc(F)cc(-c2ccc3c(c2)C(C)(C)OC(=S)N3)c1
53 | 0.0057 | CC1(C)OC(=S)Nc2ccc(-c3cncc(Br)c3)cc21

Target: T2, Progesterone receptor (Rattus norvegicus) (UniProt Q63449)
T2 sequence (whole entry): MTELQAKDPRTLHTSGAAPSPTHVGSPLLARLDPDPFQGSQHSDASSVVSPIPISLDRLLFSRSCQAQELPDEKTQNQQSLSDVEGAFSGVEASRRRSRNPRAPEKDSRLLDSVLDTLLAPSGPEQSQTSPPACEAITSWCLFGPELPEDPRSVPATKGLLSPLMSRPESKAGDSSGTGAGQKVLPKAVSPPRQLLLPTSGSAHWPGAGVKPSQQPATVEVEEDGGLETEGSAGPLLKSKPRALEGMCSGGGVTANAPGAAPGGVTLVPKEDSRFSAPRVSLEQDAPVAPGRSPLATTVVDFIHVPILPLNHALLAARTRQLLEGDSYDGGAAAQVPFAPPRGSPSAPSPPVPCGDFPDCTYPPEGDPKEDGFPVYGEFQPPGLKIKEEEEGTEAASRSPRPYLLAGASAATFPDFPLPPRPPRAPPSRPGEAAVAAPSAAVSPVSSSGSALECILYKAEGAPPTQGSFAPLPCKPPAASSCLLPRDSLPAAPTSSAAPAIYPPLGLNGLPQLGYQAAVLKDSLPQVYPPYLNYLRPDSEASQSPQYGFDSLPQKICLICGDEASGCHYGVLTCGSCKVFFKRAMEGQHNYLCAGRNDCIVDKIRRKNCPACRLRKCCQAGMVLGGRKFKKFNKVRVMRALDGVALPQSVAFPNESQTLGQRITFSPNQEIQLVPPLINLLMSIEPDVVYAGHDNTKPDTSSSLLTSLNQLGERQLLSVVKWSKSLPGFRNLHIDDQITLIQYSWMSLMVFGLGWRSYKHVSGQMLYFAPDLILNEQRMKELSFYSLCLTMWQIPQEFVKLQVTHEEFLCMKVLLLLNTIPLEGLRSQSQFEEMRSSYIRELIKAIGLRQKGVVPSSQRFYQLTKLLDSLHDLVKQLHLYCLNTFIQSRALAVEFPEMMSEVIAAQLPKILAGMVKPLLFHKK
Experiment: Effective dose on oral administration in ovariectomized female rat decidualization model
Assay type: functional, organism-based

Row | ED50 [mg/kg] | Structure (SMILES)
54 | 0.1 | CC1(C)OC(S)=Nc2ccc(-c3cc(F)cc(C#N)c3)cc21
55 | 1.5 | CC1(C)OC(S)=Nc2ccc(-c3ccc(C#N)s3)cc21
56 | 0.62 | CC1(C)OC(S)=Nc2ccc(-c3csc(C#N)c3)cc21

Target: T2, Progesterone receptor (Rattus norvegicus)
Experiment: Effective dose on subcutaneous administration in ovariectomized female rat decidualization model
Assay type: functional, organism-based

Row | ED50 [mg/kg] | Structure (SMILES)
57 | 0.22 | CC1(C)OC(S)=Nc2ccc(-c3csc(C#N)c3)cc21
